One assay has as its target T1, SMARCA2 (Homo sapiens, UniProt P51531).
T1 construct: SMARCA2-HiBiT knock-in Hela monoclonal cell (CS302366); host or cells: HeLa monoclonal cells with heterozygous HiBiT knock-in at the endogenous SMARCA2 locus
Briefly: SMARCA2 HiBiT degradation assay in HeLa cells. Conditions: 18 hours, highest concentration 10 μM. The assay is classed as cell-based. The gist of the method: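 HeLa cells carrying a heterozygous C-terminal HiBiT knock-in on SMARCA2 were seeded at 2500 cells/well. They were treated with 3-fold dilution series, top concentration 10 μM, for 18 h at 37 °C. Remaining SMARCA2-HiBiT was measured by Nano-Glo HiBiT lytic luminescence after 30-60 min at RT, followed by curve fitting.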
For orientation: With HiBiT, luminescence reflects the tagged protein that the partner subunit can reach.

The target of the next assay is T2, SMARCA4 (Homo sapiens, UniProt P51532).
T2 construct: SMARCA4-HiBiT knock-in Hela monoclonal cell (CS3023226); host or cells: HeLa monoclonal cells with heterozygous HiBiT knock-in at the endogenous SMARCA4 locus
Briefly: SMARCA4 HiBiT degradation assay in HeLa cells. Conditions: 18 hours, highest concentration 10 μM. It counts as cell-based. The essentials:
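HeLa monoclonal cells with HiBiT knocked into SMARCA4 were seeded at 2500 cells/well, dosed with compound and incubated 18 hours at 37° C. HiBiT signal reported remaining SMARCA4 protein, and values came from curve fitting.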

Bounds are passed on as bounds.

T2 sequence (P51532 whole entry): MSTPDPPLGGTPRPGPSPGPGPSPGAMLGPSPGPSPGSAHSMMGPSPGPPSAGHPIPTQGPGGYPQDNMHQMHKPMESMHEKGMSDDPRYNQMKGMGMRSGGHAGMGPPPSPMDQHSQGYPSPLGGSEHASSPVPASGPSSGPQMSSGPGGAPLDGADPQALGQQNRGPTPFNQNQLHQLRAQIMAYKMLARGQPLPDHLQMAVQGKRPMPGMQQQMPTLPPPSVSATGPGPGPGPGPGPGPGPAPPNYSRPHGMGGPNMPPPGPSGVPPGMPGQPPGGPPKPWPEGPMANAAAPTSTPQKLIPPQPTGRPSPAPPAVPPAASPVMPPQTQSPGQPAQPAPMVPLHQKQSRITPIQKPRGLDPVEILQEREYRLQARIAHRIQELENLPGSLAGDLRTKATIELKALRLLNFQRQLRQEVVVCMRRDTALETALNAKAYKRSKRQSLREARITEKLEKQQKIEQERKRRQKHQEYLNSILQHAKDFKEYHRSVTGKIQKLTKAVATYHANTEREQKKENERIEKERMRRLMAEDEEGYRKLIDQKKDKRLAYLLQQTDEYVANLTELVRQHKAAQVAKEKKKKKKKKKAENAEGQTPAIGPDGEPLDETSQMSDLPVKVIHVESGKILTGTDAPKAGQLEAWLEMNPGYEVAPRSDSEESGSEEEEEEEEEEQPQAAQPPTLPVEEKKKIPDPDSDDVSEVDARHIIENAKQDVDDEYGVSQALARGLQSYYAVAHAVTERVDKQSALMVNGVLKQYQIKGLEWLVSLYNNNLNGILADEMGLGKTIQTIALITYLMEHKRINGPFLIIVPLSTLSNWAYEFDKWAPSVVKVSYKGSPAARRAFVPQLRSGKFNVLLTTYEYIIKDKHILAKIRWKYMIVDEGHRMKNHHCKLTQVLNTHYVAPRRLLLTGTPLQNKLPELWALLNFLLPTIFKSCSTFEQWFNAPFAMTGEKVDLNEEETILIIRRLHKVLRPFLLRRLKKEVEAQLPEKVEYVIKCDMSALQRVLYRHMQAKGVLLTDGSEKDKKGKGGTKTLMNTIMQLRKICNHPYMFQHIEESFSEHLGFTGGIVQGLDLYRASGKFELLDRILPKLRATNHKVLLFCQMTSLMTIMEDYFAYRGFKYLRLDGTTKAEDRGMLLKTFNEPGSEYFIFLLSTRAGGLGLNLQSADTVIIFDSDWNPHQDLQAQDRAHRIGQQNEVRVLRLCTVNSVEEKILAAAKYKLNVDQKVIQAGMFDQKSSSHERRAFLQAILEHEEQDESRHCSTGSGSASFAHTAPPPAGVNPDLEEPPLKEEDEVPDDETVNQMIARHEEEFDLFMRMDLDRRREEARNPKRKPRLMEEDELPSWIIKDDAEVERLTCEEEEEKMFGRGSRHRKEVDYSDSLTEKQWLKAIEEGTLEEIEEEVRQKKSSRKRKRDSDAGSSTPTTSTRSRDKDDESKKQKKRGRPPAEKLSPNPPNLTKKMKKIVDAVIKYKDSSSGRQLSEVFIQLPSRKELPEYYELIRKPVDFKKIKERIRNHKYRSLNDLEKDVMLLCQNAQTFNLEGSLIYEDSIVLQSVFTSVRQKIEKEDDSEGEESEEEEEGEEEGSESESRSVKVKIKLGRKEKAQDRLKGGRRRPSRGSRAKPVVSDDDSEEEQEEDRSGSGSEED
T1 sequence (P51531 whole entry): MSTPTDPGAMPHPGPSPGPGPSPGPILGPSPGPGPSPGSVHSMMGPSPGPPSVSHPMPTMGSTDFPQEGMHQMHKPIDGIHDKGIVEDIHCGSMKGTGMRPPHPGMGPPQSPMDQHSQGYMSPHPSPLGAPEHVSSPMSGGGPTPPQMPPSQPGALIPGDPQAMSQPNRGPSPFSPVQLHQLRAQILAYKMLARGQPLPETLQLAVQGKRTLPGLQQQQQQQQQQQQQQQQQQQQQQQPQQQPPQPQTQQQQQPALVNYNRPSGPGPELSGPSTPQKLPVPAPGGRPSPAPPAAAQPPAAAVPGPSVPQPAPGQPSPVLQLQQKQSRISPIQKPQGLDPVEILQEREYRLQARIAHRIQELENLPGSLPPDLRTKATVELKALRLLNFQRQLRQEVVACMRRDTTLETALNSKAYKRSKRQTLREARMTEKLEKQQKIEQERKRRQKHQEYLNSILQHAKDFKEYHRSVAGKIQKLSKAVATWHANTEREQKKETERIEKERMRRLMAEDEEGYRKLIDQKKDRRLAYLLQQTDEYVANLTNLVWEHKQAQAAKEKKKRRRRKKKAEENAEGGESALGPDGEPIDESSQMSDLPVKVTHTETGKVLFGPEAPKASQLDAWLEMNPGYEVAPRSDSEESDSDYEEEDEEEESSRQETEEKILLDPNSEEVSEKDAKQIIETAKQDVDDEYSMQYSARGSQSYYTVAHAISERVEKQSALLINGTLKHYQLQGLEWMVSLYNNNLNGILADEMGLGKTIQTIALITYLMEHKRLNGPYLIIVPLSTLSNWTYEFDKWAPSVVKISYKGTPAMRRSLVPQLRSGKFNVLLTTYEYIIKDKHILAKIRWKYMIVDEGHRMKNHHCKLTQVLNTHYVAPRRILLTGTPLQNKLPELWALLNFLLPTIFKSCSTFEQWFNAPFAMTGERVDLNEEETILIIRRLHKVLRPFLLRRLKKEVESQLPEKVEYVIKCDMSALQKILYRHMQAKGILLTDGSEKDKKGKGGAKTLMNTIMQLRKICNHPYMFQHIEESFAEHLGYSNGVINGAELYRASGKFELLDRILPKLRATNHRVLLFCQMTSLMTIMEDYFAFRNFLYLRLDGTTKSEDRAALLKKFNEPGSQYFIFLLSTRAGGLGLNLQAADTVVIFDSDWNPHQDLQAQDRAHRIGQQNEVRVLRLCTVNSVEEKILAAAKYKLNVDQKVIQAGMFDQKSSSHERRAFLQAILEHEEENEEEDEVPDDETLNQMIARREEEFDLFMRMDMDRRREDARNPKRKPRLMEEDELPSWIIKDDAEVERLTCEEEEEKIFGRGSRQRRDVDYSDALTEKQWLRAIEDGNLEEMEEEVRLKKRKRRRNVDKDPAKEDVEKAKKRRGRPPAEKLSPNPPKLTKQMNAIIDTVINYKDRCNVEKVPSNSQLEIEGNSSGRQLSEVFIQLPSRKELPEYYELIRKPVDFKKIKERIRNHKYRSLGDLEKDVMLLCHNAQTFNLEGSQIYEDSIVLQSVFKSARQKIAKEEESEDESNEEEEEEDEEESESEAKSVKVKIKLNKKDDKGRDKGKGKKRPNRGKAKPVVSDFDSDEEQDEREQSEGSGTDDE

On SMARCA2, `Cc1cc(O[C@@H]2C[C@@H]3CNc4nnc(-c5cc(F)cc(Cl)c5O)cc4N3C2)ccc1CN1CCN(c2ccc3c(c2)C(=O)N(C2CCC(=O)NC2=O)C3)CC1` (stereo partly drawn) [Example 19, 3-(6-(4-(4-(((6aR,8R)-2-(3-chloro-5-fluoro-2-hydroxyphenyl)-5,6,6a,7,8,9-hexahydropyrrolo[1′,2′:4,5]pyrazino[2,3-c]pyridazin-8-yl)oxy)-2-methylbenzyl)piperazin-1-yl)-1-oxoisoindolin-2-yl)piperidine-2,6-dione] returned a half-maximal degradation concentration (DC50) below 100 nM and a maximal degradation (Dmax) above 75%. At SMARCA4, this compound returned a DC50 below 100 nM and a Dmax of 50 to 75%.
For `COc1cc(O[C@@H]2C[C@@H]3CNc4nnc(-c5cccc(Cl)c5O)cc4N3C2)ccc1CN1CCN(c2ccc3c(c2)C(=O)N(C2CCC(=O)NC2=O)C3)CC1` (stereo partly drawn) [Example 21, 3-(6-(4-(4-(((6aR,8R)-2-(3-chloro-2-hydroxyphenyl)-5,6,6a,7,8,9-hexahydropyrrolo[1′,2′:4,5]pyrazino[2,3-c]pyridazin-8-yl)oxy)-2-methoxybenzyl)piperazin-1-yl)-1-oxoisoindolin-2-yl)piperidine-2,6-dione], the DC50 on SMARCA2 and at SMARCA4 was below 100 nM throughout. For the same compound, the greatest degradation seen (Dmax) at SMARCA2 and at SMARCA4 was above 75% each time.
For the compound `CC[C@]12CNc3nnc(-c4cccc(F)c4O)cc3N1C[C@H](Oc1cnc(CN3CCC(c4ccc5c(c4)C(=O)N([C@H]4CCC(=O)NC4=O)C5)CC3)cn1)C2` [Example 103, (S)-3-(6-(1-((5-(((6aS,8R)-6a-ethyl-2-(3-fluoro-2-hydroxyphenyl)-5,6,6a,7,8,9-hexahydropyrrolo[1′,2′:4,5]pyrazino[2,3-c]pyridazin-8-yl)oxy)pyrazin-2-yl)methyl)piperidin-4-yl)-1-oxoisoindolin-2-yl)piperidine-2,6-dione], the DC50 on SMARCA2 and at SMARCA4 was below 100 nM in each case. Further, the Dmax at SMARCA2 is above 75%; at SMARCA4 it was 50 to 75%.
At SMARCA2, `Cc1nc(CN2CCC(c3ccc4c(c3)C(=O)N([C@H]3CCC(=O)NC3=O)C4)CC2)cnc1O[C@H]1CN2c3cc(-c4cccc(F)c4O)nnc3NC[C@]2(C(F)F)C1` [Example 91, (S)-3-(6-(1-((5-(((6aS,8R)-6a-(difluoromethyl)-2-(3-fluoro-2-hydroxyphenyl)-5,6,6a,7,8,9-hexahydropyrrolo[1′,2′:4,5]pyrazino[2,3-c]pyridazin-8-yl)oxy)-6-methylpyrazin-2-yl)methyl)piperidin-4-yl)-1-oxoisoindolin-2-yl)piperidine-2,6-dione] yielded a DC50 below 100 nM and a maximal degradation (Dmax) above 75%. On SMARCA4, this compound returned a DC50 below 100 nM and a Dmax of 50 to 75%.
Consider `CCc1cc(CN2CCN(c3ccc4c(c3)C(=O)N([C@H]3CCC(=O)NC3=O)C4)CC2)cnc1O[C@H]1CN2c3cc(-c4cccc(F)c4O)nnc3NC[C@@]2(C(F)F)C1` [Example 44, (S)-3-(6-(4-((6-(((6aR,8R)-6a-(difluoromethyl)-2-(3-fluoro-2-hydroxyphenyl)-5,6,6a,7,8,9-hexahydropyrrolo[1′,2′:4,5]pyrazino[2,3-c]pyridazin-8-yl)oxy)-5-ethylpyridin-3-yl)methyl)piperazin-1-yl)-1-oxoisoindolin-2-yl)piperidine-2,6-dione], for which, on SMARCA2, the DC50 was below 100 nM and the maximal degradation (Dmax) is above 75%. Also, the half-maximal degradation concentration (DC50) on SMARCA4 lay within 100 to 1000 nM.
On to `O=C1CCC(N2Cc3ccc(N4CCN(Cc5cnc(O[C@H]6CN7c8cc(-c9cccc(F)c9O)nnc8NC[C@@]7(C(F)F)C6)c(Cl)c5)CC4)cc3C2=O)C(=O)N1` (stereo partly drawn) [Example 85, 3-(6-(4-((5-chloro-6-(((6aR,8R)-6a-(difluoromethyl)-2-(3-fluoro-2-hydroxyphenyl)-5,6,6a,7,8,9-hexahydropyrrolo[1′,2′:4,5]pyrazino[2,3-c]pyridazin-8-yl)oxy)pyridin-3-yl)methyl)piperazin-1-yl)-1-oxoisoindolin-2-yl)piperidine-2,6-dione], for which the 50% degradation concentration (DC50) on SMARCA2 and on SMARCA4 was below 100 nM throughout. Moreover, the results for the Dmax on SMARCA2 and on SMARCA4 were above 75% and 50 to 75%, respectively.
At SMARCA2, `C[C@@H]1CN(CC2CCN(c3ccc4c(c3)C(=O)N(C3CCC(=O)NC3=O)C4)CC2)C[C@H](C)N1C(=O)[C@@H]1C[C@@H]2CNc3nnc(-c4cccc(F)c4O)cc3N2C1` (stereo partly drawn) [Example 34, 3-(6-(4-(((3R,5S)-4-((6aR,8R)-2-(3-fluoro-2-hydroxyphenyl)-5,6,6a,7,8,9-hexahydropyrrolo[1′,2′:4,5]pyrazino[2,3-c]pyridazine-8-carbonyl)-3,5-dimethylpiperazin-1-yl)methyl)piperidin-1-yl)-1-oxoisoindolin-2-yl)piperidine-2,6-dione] yielded a half-maximal degradation concentration (DC50) below 100 nM and a maximal degradation (Dmax) of 50 to 75%. On SMARCA4, this compound showed a 50% degradation concentration (DC50) above 1000 nM and a Dmax below 50%.
In the same order, the values of `Cc1cc(CN2CCN(c3ccc4c(c3)C(=O)N([C@H]3CCC(=O)NC3=O)C4)CC2)cnc1O[C@H]1CN2c3cc(-c4cccc(F)c4O)nnc3NC[C@]2(C)C1` [Example 83, (S)-3-(6-(4-((6-(((6aS,8R)-2-(3-fluoro-2-hydroxyphenyl)-6a-methyl-5,6,6a,7,8,9-hexahydropyrrolo[1′,2′:4,5]pyrazino[2,3-c]pyridazin-8-yl)oxy)-5-methylpyridin-3-yl)methyl)piperazin-1-yl)-1-oxoisoindolin-2-yl)piperidine-2,6-dione] are below 100 nM, above 75%, below 100 nM and above 75%.
In the same order, the values of `Cc1cc(O[C@H]2CN3c4cc(-c5cccc(F)c5O)nnc4NC[C@]3(C)C2)cnc1CN1CCN(c2ccc3c(c2)C(=O)N([C@H]2CCC(=O)NC2=O)C3)CC1` [Example 82, (S)-3-(6-(4-((5-(((6aS,8R)-2-(3-fluoro-2-hydroxyphenyl)-6a-methyl-5,6,6a,7,8,9-hexahydropyrrolo[1′,2′:4,5]pyrazino[2,3-c]pyridazin-8-yl)oxy)-3-methylpyridin-2-yl)methyl)piperazin-1-yl)-1-oxoisoindolin-2-yl)piperidine-2,6-dione] are below 100 nM, above 75%, below 100 nM and 50 to 75%.
For `Cc1nc(O[C@H]2CN3c4cc(-c5cccc(F)c5O)nnc4NC[C@@]3(C)C2)ncc1CN1CCC(c2ccc3c(c2)C(=O)N([C@H]2CCC(=O)NC2=O)C3)CC1` [Example 77, (S)-3-(6-(1-((2-(((6aR,8R)-2-(3-fluoro-2-hydroxyphenyl)-6a-methyl-5,6,6a,7,8,9-hexahydropyrrolo[1′,2′:4,5]pyrazino[2,3-c]pyridazin-8-yl)oxy)-4-methylpyrimidin-5-yl)methyl)piperidin-4-yl)-1-oxoisoindolin-2-yl)piperidine-2,6-dione] the same measures were below 100 nM, above 75%, above 1000 nM and below 50%.
For `Cc1cc(O[C@@H]2C[C@@H]3CNc4nnc(-c5cccc(F)c5O)cc4N3C2)ccc1CN1CCN(c2ccc3c(c2)C(=O)N(C2CCC(=O)NC2=O)C3)CC1` (stereo partly drawn) [Example 11, 3-(6-(4-(4-(((6aR,8R)-2-(3-fluoro-2-hydroxyphenyl)-5,6,6a,7,8,9-hexahydropyrrolo[1′,2′:4,5]pyrazino[2,3-c]pyridazin-8-yl)oxy)-2-methylbenzyl)piperazin-1-yl)-1-oxoisoindolin-2-yl)piperidine-2,6-dione], at SMARCA2, the DC50 is below 100 nM and the Dmax is above 75%. At SMARCA4, this compound registered a DC50 below 100 nM and a Dmax of 50 to 75%.
On SMARCA2, `Cc1nc(CN2CCC(c3ccc4c(c3)C(=O)N([C@H]3CCC(=O)NC3=O)C4)CC2)cnc1O[C@H]1CN2c3cc(-c4cccc(F)c4O)nnc3NC[C@@]2(CF)C1` [Example 65, (S)-3-(6-(1-((5-(((6aR,8R)-2-(3-Fluoro-2-hydroxyphenyl)-6a-(fluoromethyl)-5,6,6a,7,8,9-hexahydropyrrolo[1′,2′:4,5]pyrazino[2,3-c]pyridazin-8-yl)oxy)-6-methylpyrazin-2-yl)methyl)piperidin-4-yl)-1-oxoisoindolin-2-yl)piperidine-2,6-dione] displayed a half-maximal degradation concentration (DC50) below 100 nM and a maximal degradation (Dmax) above 75%. On SMARCA4, this compound yielded a DC50 of 100 to 1000 nM and a Dmax below 50%.
In the same order, the values of `Cc1cccc(-c2cc3c(nn2)NC[C@H]2C[C@@H](Oc4ccc(CN5CCN(c6ccc7c(c6)C(=O)N(C6CCC(=O)NC6=O)C7)CC5)cc4)CN32)c1O` (stereo partly drawn) [Example 23, 3-(6-(4-(4-(((6aR,8R)-2-(2-hydroxy-3-methylphenyl)-5,6,6a,7,8,9-hexahydropyrrolo[1′,2′:4,5]pyrazino[2,3-c]pyridazin-8-yl)oxy)benzyl)piperazin-1-yl)-1-oxoisoindolin-2-yl)piperidine-2,6-dione] are below 100 nM, above 75%, below 100 nM and 50 to 75%.
In the same order, the values of `Cc1cc(O[C@@H]2C[C@@H]3CNc4nnc(-c5cc(F)cc(F)c5O)cc4N3C2)ncc1CN1CCN(c2ccc3c(c2)C(=O)N([C@H]2CCC(=O)NC2=O)C3)CC1` [Example 28, (S)-3-(6-(4-((6-(((6aR,8R)-2-(3,5-difluoro-2-hydroxyphenyl)-5,6,6a,7,8,9-hexahydropyrrolo[1′,2′:4,5]pyrazino[2,3-c]pyridazin-8-yl)oxy)-4-methylpyridin-3-yl)methyl)piperazin-1-yl)-1-oxoisoindolin-2-yl)piperidine-2,6-dione] are below 100 nM, above 75%, below 100 nM and 50 to 75%.

The DC50 is the concentration giving 50% degradation. A higher DC50 goes with degradation only at high concentration. As usually defined, the Dmax is the largest share of the target that was removed. A higher Dmax goes with deep degradation.

Values taken from patent US20240165244A1 (Prelude Therapeutics Incorporated, priority 2022, published 2024).
